Measurements as given in the NIST ThermoML archive (doi:10.1016/j.jct.2018.12.006).
± gives the expanded uncertainty stated by the source.

Experiment: molar heat capacity at constant pressure
Conditions: Crystal, Small (less than 1 g) adiabatic calorimetry

C[N+](C)(C)C[C@H](O)CC(=O)[O-] [(R)-3-hydroxy-4-(trimethylammonio)butanoate]
Conditions	molar heat capacity at constant pressure [J/K/mol]
5 K, 101.33 kPa	0.29 ± 0.023
6.08 K, 100 kPa	0.53 ± 0.03
6.27 K, 100 kPa	0.571 ± 0.032
6.41 K, 100 kPa	0.622 ± 0.034
6.56 K, 100 kPa	0.669 ± 0.035
6.69 K, 100 kPa	0.727 ± 0.038
6.83 K, 100 kPa	0.774 ± 0.039
6.95 K, 100 kPa	0.787 ± 0.04
7.08 K, 100 kPa	0.832 ± 0.042
7.19 K, 100 kPa	0.851 ± 0.043
7.48 K, 100 kPa	0.985 ± 0.048
7.82 K, 100 kPa	1.107 ± 0.053
8.18 K, 100 kPa	1.278 ± 0.06
8.52 K, 100 kPa	1.441 ± 0.066
8.75 K, 100 kPa	1.53 ± 0.07
9.06 K, 100 kPa	1.689 ± 0.076
9.34 K, 100 kPa	1.836 ± 0.082
9.62 K, 100 kPa	2.018 ± 0.09
9.93 K, 100 kPa	2.207 ± 0.097
10 K, 101.33 kPa	2.25 ± 0.099
10.24 K, 100 kPa	2.402 ± 0.1
10.56 K, 100 kPa	2.616 ± 0.11
10.88 K, 100 kPa	2.869 ± 0.12
11.21 K, 100 kPa	3.127 ± 0.14
11.62 K, 100 kPa	3.417 ± 0.15
11.9 K, 100 kPa	3.675 ± 0.16
12.69 K, 100 kPa	4.369 ± 0.19
13.96 K, 100 kPa	5.657 ± 0.24
15 K, 101.33 kPa	6.89 ± 0.29
15.22 K, 100 kPa	7.205 ± 0.3
16.5 K, 100 kPa	8.836 ± 0.37
17.79 K, 100 kPa	10.57 ± 0.44
19.1 K, 100 kPa	12.27 ± 0.51
20 K, 101.33 kPa	13.41 ± 0.55
20.43 K, 100 kPa	13.99 ± 0.19
22.35 K, 100 kPa	16.18 ± 0.22
24.86 K, 100 kPa	19.02 ± 0.24
25 K, 101.33 kPa	19.34 ± 0.25
27.27 K, 100 kPa	21.98 ± 0.27
29.7 K, 100 kPa	24.73 ± 0.29
30 K, 101.33 kPa	25.01 ± 0.3
32.15 K, 100 kPa	27.39 ± 0.32
34.61 K, 100 kPa	30.12 ± 0.35
35 K, 101.33 kPa	30.61 ± 0.36
37.06 K, 100 kPa	32.92 ± 0.38
39.52 K, 100 kPa	35.77 ± 0.41
40 K, 101.33 kPa	36.27 ± 0.41
41.98 K, 100 kPa	38.6 ± 0.26
44.45 K, 100 kPa	41.3 ± 0.27
45 K, 101.33 kPa	41.94 ± 0.28
46.92 K, 100 kPa	43.9 ± 0.29
49.4 K, 100 kPa	46.7 ± 0.3
50 K, 101.33 kPa	47.51 ± 0.31
51.56 K, 100 kPa	49.36 ± 0.32
53.43 K, 100 kPa	51.37 ± 0.33
55.31 K, 100 kPa	53.34 ± 0.34
57.23 K, 100 kPa	55.32 ± 0.35
59.08 K, 100 kPa	57.13 ± 0.36
60 K, 101.33 kPa	57.97 ± 0.36
60.96 K, 100 kPa	58.68 ± 0.36
62.84 K, 100 kPa	60.64 ± 0.37
64.71 K, 100 kPa	62.32 ± 0.38
66.57 K, 100 kPa	64.28 ± 0.39
68.43 K, 100 kPa	65.98 ± 0.4
70 K, 101.33 kPa	67.35 ± 0.41
70.29 K, 100 kPa	67.73 ± 0.41
72.16 K, 100 kPa	69.2 ± 0.42
74.04 K, 100 kPa	70.9 ± 0.43
75.9 K, 100 kPa	72.29 ± 0.44
77.76 K, 100 kPa	74.17 ± 0.45
79.61 K, 100 kPa	75.69 ± 0.45
80 K, 101.33 kPa	75.9 ± 0.46
81.77 K, 100 kPa	77.54 ± 0.46
84.24 K, 100 kPa	79.31 ± 0.47
84.82 K, 100 kPa	79.43 ± 0.47
86.69 K, 100 kPa	81.13 ± 0.48
88.65 K, 100 kPa	82.96 ± 0.49
90 K, 101.33 kPa	83.98 ± 0.51
92.22 K, 100 kPa	85.77 ± 0.52
95.79 K, 100 kPa	88.51 ± 0.53
99.36 K, 100 kPa	91.34 ± 0.54
100 K, 101.33 kPa	91.81 ± 0.54
102.92 K, 100 kPa	94.28 ± 0.56
106.48 K, 100 kPa	96.97 ± 0.57
110 K, 101.33 kPa	99.54 ± 0.58
110.02 K, 100 kPa	99.66 ± 0.58
113.57 K, 100 kPa	102.4 ± 0.6
117.1 K, 100 kPa	105 ± 0.6
120 K, 101.33 kPa	107.5 ± 0.6
120.63 K, 100 kPa	107.7 ± 0.6
124.16 K, 100 kPa	110.4 ± 0.6
127.68 K, 100 kPa	113 ± 0.6
130 K, 101.33 kPa	114.7 ± 0.7
131.19 K, 100 kPa	115.4 ± 0.7
134.7 K, 100 kPa	117.9 ± 0.7
138.2 K, 100 kPa	120.5 ± 0.7
140 K, 101.33 kPa	121.6 ± 0.7
141.66 K, 100 kPa	122.9 ± 0.7
145.14 K, 100 kPa	125.4 ± 0.7
148.61 K, 100 kPa	127.8 ± 0.7
150 K, 101.33 kPa	128.6 ± 0.7
152.07 K, 100 kPa	130.3 ± 0.7
155.53 K, 100 kPa	132.7 ± 0.7
158.97 K, 100 kPa	135 ± 0.8
160 K, 101.33 kPa	135.8 ± 0.8
162.41 K, 100 kPa	137.4 ± 0.8
165.85 K, 100 kPa	139.7 ± 0.8
169.27 K, 100 kPa	142.1 ± 0.8
170 K, 101.33 kPa	142.8 ± 0.8
172.68 K, 100 kPa	144.4 ± 0.8
176.08 K, 100 kPa	146.7 ± 0.8
179.48 K, 100 kPa	149 ± 0.8
180 K, 101.33 kPa	149.2 ± 0.8
182.87 K, 100 kPa	151.1 ± 0.8
186.24 K, 100 kPa	153.1 ± 0.8
189.61 K, 100 kPa	154.7 ± 0.8
190 K, 101.33 kPa	154.7 ± 0.8
192.97 K, 100 kPa	156.2 ± 0.9
196.22 K, 100 kPa	157.8 ± 0.9
199.57 K, 100 kPa	159.7 ± 0.9
200 K, 101.33 kPa	160.1 ± 0.9
202.89 K, 100 kPa	161.9 ± 0.9
203.31 K, 100 kPa	162.1 ± 0.9
206.21 K, 100 kPa	163.8 ± 0.9
206.83 K, 100 kPa	163.9 ± 0.9
209.52 K, 100 kPa	165.7 ± 0.9
210 K, 101.33 kPa	166 ± 0.9
210.24 K, 100 kPa	166.4 ± 0.9
212.83 K, 100 kPa	167.6 ± 0.9
213.66 K, 100 kPa	168.2 ± 0.9
216.13 K, 100 kPa	169.6 ± 0.9
219.43 K, 100 kPa	171.7 ± 0.9
220 K, 101.33 kPa	172.2 ± 0.9
222.71 K, 100 kPa	173.9 ± 0.9
225.97 K, 100 kPa	176 ± 1
229.25 K, 100 kPa	178.3 ± 1
230 K, 101.33 kPa	178.6 ± 1
232.54 K, 100 kPa	180.4 ± 1
235.81 K, 100 kPa	182.5 ± 1
239.07 K, 100 kPa	184.6 ± 1
240 K, 101.33 kPa	185.1 ± 1
242.32 K, 100 kPa	186.7 ± 1
245.56 K, 100 kPa	188.8 ± 1
248.62 K, 100 kPa	190.6 ± 1
250 K, 101.33 kPa	191.6 ± 1
251.85 K, 100 kPa	192.6 ± 1
255.07 K, 100 kPa	194.8 ± 1
257.5 K, 100 kPa	196.2 ± 1.1
260 K, 101.33 kPa	198.2 ± 1.1
260.89 K, 100 kPa	199.2 ± 1.1
264.26 K, 100 kPa	200.6 ± 1.1
267.64 K, 100 kPa	203.5 ± 1.1
270 K, 101.33 kPa	205 ± 1.1
271 K, 100 kPa	205.7 ± 1.1
273.15 K, 101.33 kPa	207.2 ± 1.1
274.35 K, 100 kPa	208.2 ± 1.1
277.7 K, 100 kPa	210.3 ± 1.1
280 K, 101.33 kPa	211.9 ± 1.1
281.03 K, 100 kPa	212.6 ± 1.1
284.35 K, 100 kPa	214.7 ± 1.1
287.63 K, 100 kPa	217.8 ± 1.2
290 K, 101.33 kPa	218.9 ± 1.2
290.92 K, 100 kPa	219.8 ± 1.2
294.21 K, 100 kPa	221 ± 1.2
297.46 K, 100 kPa	224.2 ± 1.2
298.15 K, 101.33 kPa	224.7 ± 1.2
300 K, 101.33 kPa	226 ± 1.2
300.21 K, 100 kPa	225.9 ± 1.2
302.94 K, 100 kPa	227.7 ± 1.2
306.14 K, 100 kPa	230.3 ± 1.2
309.33 K, 100 kPa	232.6 ± 1.2
310 K, 101.33 kPa	233.1 ± 1.2
312.5 K, 100 kPa	234.8 ± 1.2
315.65 K, 100 kPa	237.1 ± 1.2
318.79 K, 100 kPa	239.5 ± 1.3
320 K, 101.33 kPa	240.1 ± 1.3
321.91 K, 100 kPa	241.3 ± 1.3
325.01 K, 100 kPa	243.5 ± 1.3
328.09 K, 100 kPa	245.8 ± 1.3
330 K, 101.33 kPa	247.2 ± 1.3
331.16 K, 100 kPa	248.1 ± 1.3
334.21 K, 100 kPa	250.7 ± 1.3
337.21 K, 100 kPa	251.9 ± 1.3
340 K, 101.33 kPa	254.2 ± 1.3
340.22 K, 100 kPa	254.1 ± 1.3
343.21 K, 100 kPa	256.3 ± 1.3
346.17 K, 100 kPa	258.6 ± 1.4
350 K, 101.33 kPa	261 ± 1.4
